Data reported in paper PMC10536928, “Discovery of New Pyrrolo[2,3-d]pyrimidine Derivatives as Potential Multi-Targeted Kinase Inhibitors and Apoptosis Inducers” (Pharmaceuticals, 2023).

Experiments:
Type in all cases: cell-based
HepG2 cells = test: Annexin-V/propidium iodide double staining assay; conditions: compound at its IC50, 24 h
Method: To investigate the type of cell death induced by compound 5k, flow cytometry analysis was conducted. […] Subsequently, the cells were double stained with Annexin V and propidium iodide (PI). […] Apoptosis is a process of programmed cell death that occurs naturally in the body, while necrosis is a type of cell death that occurs due to damage or injury to the cell. […] In the early stage of the experiment, the percentage of apoptotic cells was 0.51% in the control group and 15.63% in the 5k treated group. In the late stage, the percentage of apoptotic cells was 0.29% in the control group and 9.74% in the 5k treated group.
In contrast, the percentage of necrotic cells was also higher in the 5k treated group compared to the control group. The percentage of necrotic cells was 1.58% in the control group and 4.17% in the 5k treated group. […] Further studies are needed to determine the underlying mechanisms of this effect and to assess the potential therapeutic applications of compound 5k in the treatment of diseases involving abnormal cell death.
To investigate the apoptotic effects of the synthesized compound 5k, HepG2 cells were cultured in triplicate at a density of 2.0 × 10^5 cells per well. Subsequently, the cells were treated with the selected compounds at their respective IC50 values determined by the MTT assay. After 24 h, the cells were detached using trypsin, collected, and then centrifuged. Following two washes with PBS, the cells were resuspended in 0.1 mL of binding buffer. Dual staining was performed by adding Annexin V-FITC (5 µL) and propidium iodide (5 µL) to the cell suspension, which was then incubated in the dark for 15 min at room temperature. Flow cytometry analysis was performed using the Epics XL-MCL™ flow cytometry equipment (Beckman Coulter, Apeldoorn, The Netherlands) with an excitation wavelength of 488 nm and an emission wavelength of 530 nm. Finally, the experimental results were analyzed using flowing “Turku Centre for Biotechnology” software, version 2.5.1 (Turku, Finland).

caspase-3 = test: Apoptotic protein levels assay (ELISA) in HepG2 cells
Description: (§1) To validate the mechanism of cell death and the induction of apoptosis caused by compound 5k, the expression levels of some apoptotic proteins were investigated. […] Specifically, the levels of caspase-3 (6.9 folds higher than the control) and Bax (2.6 folds higher than the control) were higher in the group treated with 5k compared to the control group. Caspase-3 is a key enzyme involved in the execution of apoptosis, while Bax is a pro-apoptotic protein that promotes cell death. […] Bcl-2 is a protein that inhibits apoptosis, so the lower levels of Bcl-2 in the 5k treated group further support the notion that treatment with 5k may induce apoptosis in HepG2 cells. […] These findings may have implications for the development of novel therapies for diseases involving abnormal cell death, including cancer. Further studies are warranted in order to elucidate the underlying mechanisms of action of compound 5k and to assess its potential therapeutic applications.
(§2) The ELISA technique was employed to assess the impact of compound 5k on the alteration of protein levels associated with caspase-3, BAX, and Bcl-2. Specifically, the following ELISA kits were utilized: KHO1091 (InvitrogenTM, Grand Island, NY, USA) for caspase-3, EIA-4860 and EIA-4487 for BAX, (DRU International INC., Mountainside, NJ, USA), and 99-0042 (InvitrogenTM, Grand Island, NY, USA) for Bcl-2 for the respective measurements. The experimental procedures were conducted according to the instructions provided by the manufacturers and our recently published article. Initially, HepG2 cells were cultured in triplicate in 96-well plates. Following a 24-h incubation period, the cells were subjected to various concentrations of compound 5k, while a control group was treated with 0.1% DMSO (V/V). After an additional 24-h incubation, the absorbance levels were assessed using a BioTek Synergy H1 Multi-mode Reader (Agilent Technologies, Santa Clara, CA, USA) at wavelengths ranging from 450 to 650 nm.

Bcl-2 = test: as above
Description: as §1, §2

Bax = test: as above
Description: as §1, §2

With `O=C(N/N=C/c1ccc(Cl)c(Cl)c1)c1ccc(Nc2ncnc3[nH]ccc23)cc1` [Compound 5k, (E)-4-((7H-Pyrrolo[2,3-d]pyrimidin-4-yl)amino)-N’-(3,4-dichlorobenzylidene)benzohydrazide] the “Apoptosis Late” value (HepG2 cells; control 0.29) was 9.74%, the “Apoptosis Early” value (HepG2 cells; control 0.51) was 15.63% and the Necrosis (HepG2 cells; control 1.58) was 4.17%. The “caspase-3 level, folds higher than the control” value (caspase-3) was 6.9 folds, the “Protein Expression (Pg/mL) Caspase-3” value (caspase-3; 24 h, ELISA, control 66.28 ± 4.66) was 453.8 ± 17.4 pg/mL and the “Bcl-2 level relative to the control” value (Bcl-2) was “two-fold lower than the control”. The “Protein Expression (Pg/mL) Bcl-2” value (Bcl-2; 24 h, ELISA, control 11.7 ± 0.36) was 5.146 ± 0.09 pg/mL, the “Bax level, folds higher than the control” value (Bax) was 2.6 folds and the “Protein Expression (Pg/mL) Bax” value (Bax; 24 h, ELISA, control 67.09 ± 4.94) was 173.8 ± 6.61 pg/mL.
